Test results reported in ChEMBL document CHEMBL5154783, “Design, synthesis, and evaluation of novel 3-thiophene derivatives as potent fungistatic and fungicidal reagents based on a conformational restriction strategy” (Eur J Med Chem, 2022).
Values after ≈ are worked out from the molar mass of the structure shown. Active and inactive are the calls of the source. The calls are words filed in the database; no cut-off is given here.

Experiments:
Candida albicans [1] = experiment: Antifungal activity against FLC-resistant Candida albicans 901 assessed as fungal growth inhibition by CLSI based serial microbroth dilution method; assay type: functional
Cryptococcus neoformans = experiment: Antifungal activity against Cryptococcus neoformans CGMCC 2.3161 assessed as fungal growth inhibition by CLSI based serial microbroth dilution method; assay type: functional
Candida parapsilosis = experiment: Antifungal activity against Candida parapsilosis GIM 2.190 assessed as fungal growth inhibition by CLSI based serial microbroth dilution method; assay type: functional; details: Lodderomyces parapsilosis
Candida albicans [2] = experiment: Antifungal activity against FLC-resistant Candida albicans 311 assessed as fungal growth inhibition by CLSI based serial microbroth dilution method; assay type: functional
Candida albicans [3] = experiment: Antifungal activity against FLC-resistant Candida albicans CaR assessed as fungal growth inhibition by CLSI based serial microbroth dilution method; assay type: functional
Candida albicans [4] = experiment: Antibiofilm activity against Candida albicans […] assessed as inhibition of […] metabolism activity in the biofilm measured after 48 hrs by XTT reduction assay; assay type: functional
Cell membrane [5] = experiment: Disruption of membrane integrity in Candida albicans ATCC SC5314 assessed as rupture of fungal cells at 16 ug/ml incubated for 48 hrs by transmission electron microscopy; assay type: subcellular; details: dose 16.0 µg/ml
Candida albicans [6] = experiment: Antibiofilm activity against Candida albicans […] assessed as inhibition of […] metabolism within the biofilm measured after 6 hrs by XTT reduction assay; assay type: functional
Cell membrane [7] = experiment: Disruption of membrane integrity in Candida albicans ATCC SC5314 assessed as cell membrane damage at 16 ug/ml incubated for 48 hrs by transmission electron microscopy; assay type: subcellular; details: dose 16.0 µg/ml
Candida albicans [8] = experiment: Antifungal activity against FLC-resistant Candida albicans 632 assessed as fungal growth inhibition by CLSI based serial microbroth dilution method; assay type: functional
Candida albicans [9] = experiment: Antifungal activity against Candida albicans CPCC400616 assessed as fungal growth inhibition by CLSI based serial microbroth dilution method; assay type: functional
Cell membrane [10] = experiment: Disruption of membrane integrity in Candida albicans ATCC SC5314 assessed as cell wall damage at 16 ug/ml incubated for 48 hrs by transmission electron microscopy; assay type: subcellular; details: dose 16.0 µg/ml
Aspergillus fumigatus = experiment: Antifungal activity against Aspergillus fumigatus CGMCC 3.7795 assessed as fungal growth inhibition by CLSI based serial microbroth dilution method; assay type: functional
Candida albicans [11] = experiment: Antibiofilm activity against Candida albicans […] assessed as inhibition of […] metabolism activity in the biofilm measured after 24 hrs by XTT reduction assay; assay type: functional
Candida albicans [12] = experiment: Antifungal activity against FLC-resistant Candida albicans 103 assessed as fungal growth inhibition by CLSI based serial microbroth dilution method; assay type: functional
Cell membrane [13] = experiment: Disruption of membrane integrity in Candida albicans ATCC SC5314 assessed as endogenous substances leakage at 16 ug/ml incubated for 48 hrs by transmission electron microscopy; assay type: subcellular; details: dose 16.0 µg/ml
Candida albicans [14] = experiment: Antifungal activity against FLC and ITC-resistant Candida albicans 17 assessed as fungal growth inhibition by CLSI based serial microbroth dilution method; assay type: functional
[15] = Cytotoxicity against human HepG2 cells assessed as reduction in cell viability incubated for 96 hrs by MTT assay; assay type: toxicity, cell-based
Nakaseomyces glabratus = experiment: Antifungal activity against Candida glabrata clinical isolate assessed as fungal growth inhibition by CLSI based serial microbroth dilution method; assay type: functional
A549 = experiment: Cytotoxicity against human A549 cells assessed as reduction in cell viability incubated for 96 hrs by MTT assay; assay type: functional, cell-based; details: A549, 96 h
[16] = Stability of the compound in human plasma assessed as half life measured after […] by LC-MS/MS analysis; assay type: ADME, cell-free
RAW264.7 = experiment: Cytotoxicity against mouse RAW264.7 cells assessed as reduction in cell viability incubated for 96 hrs by MTT assay; assay type: functional, cell-based; details: RAW264.7, 96 h
Pichia kudriavzevii = experiment: Antifungal activity against Candida krusei GIM 2.1 assessed as fungal growth inhibition by CLSI based serial microbroth dilution method; assay type: functional
Candida albicans [17] = experiment: Antifungal activity against Candida albicans ATCC SC5314 assessed as fungal growth inhibition by CLSI based serial microbroth dilution method; assay type: functional
Candida albicans [18] = experiment: Fungicidal activity against Candida albicans CPCC400616 measured after 48 hrs; assay type: functional
[19] = Stability of the compound in human plasma assessed as parent compound remaining after […] by LC-MS/MS analysis; assay type: ADME, cell-free; details: read-out: Stability
Candida albicans [20] = experiment: Antibiofilm activity against Candida albicans […] assessed as inhibition of […] metabolism within the biofilm measured after 3 hrs by XTT reduction assay; assay type: functional
Candida albicans [21] = experiment: Antibiofilm activity against Candida albicans […] assessed as inhibition of […] metabolism within the biofilm measured after 18 hrs by XTT reduction assay; assay type: functional
Candida albicans [22] = experiment: Antifungal activity against FLC-resistant Candida albicans 904 assessed as fungal growth inhibition by CLSI based serial microbroth dilution method; assay type: functional
Candida tropicalis = experiment: Antifungal activity against Candida tropicalis CGMCC 2.3739 assessed as fungal growth inhibition by CLSI based serial microbroth dilution method; assay type: functional
[23] = Cytotoxicity against human THLE-2 cells assessed as reduction in cell viability incubated for 96 hrs by MTT assay; assay type: toxicity, cell-based
Candida albicans [24] = experiment: Antifungal activity against FLC-resistant Candida albicans 100 assessed as fungal growth inhibition by CLSI based serial microbroth dilution method; assay type: functional
MCF7 = experiment: Cytotoxicity against human MCF7 cells assessed as reduction in cell viability incubated for 96 hrs by MTT assay; assay type: functional, cell-based; details: MCF7, 96 h
[25] = Stability of the compound in human plasma assessed as parent compound remaining after 120 hrs by LC-MS/MS analysis; assay type: ADME, cell-free; details: read-out: Stability

Fc1cccc(F)c1CC1(Cn2ccnc2)COC(c2ccc(-c3ccsc3)cc2)=N1 (centres undefined) showed an MIC (Candida albicans [1]) of 0.5 µg/mL (≈ 1.15 µM), an MIC (Cryptococcus neoformans) of 0.125 µg/mL (≈ 0.287 µM) and an MIC (Candida parapsilosis) of 0.125 µg/mL (≈ 0.287 µM). For the same compound, the MIC (Candida albicans [2]) was 8 µg/mL (≈ 18.4 µM), the MIC (Candida albicans [3]) was 1 µg/mL (≈ 2.3 µM) and the MIC50 (Candida albicans [4]) was over 64 µg/mL. The Activity (Cell membrane [5]) was “Active”, the MIC50 (Candida albicans [6]) was 0.5 µg/mL (≈ 1.15 µM) and the Activity (Cell membrane [7]) was “Active”. The MIC (Candida albicans [8]) was 4 µg/mL (≈ 9.18 µM), the MIC (Candida albicans [9]) was 0.015 µg/mL (≈ 0.0344 µM) and the Activity (Cell membrane [10]) was “Active”. It also gave an MIC (Aspergillus fumigatus) of 8 µg/mL (≈ 18.4 µM), an MIC50 (Candida albicans [11]) of 32 µg/mL (≈ 73.5 µM) and an MIC (Candida albicans [12]) of 2 µg/mL (≈ 4.59 µM). The Activity (Cell membrane [13]) was “Active”, the MIC (Candida albicans [14]) was 8 µg/mL (≈ 18.4 µM) and the IC50 at 96 h [15] was 34.2 µM. The MIC (Nakaseomyces glabratus) was 0.06 µg/mL (≈ 0.138 µM), the IC50 (A549) was over 50 µM and the half-life [16] was over 4.8 h. It also gave an IC50 (RAW264.7) of 7.58 µM, an MIC (Pichia kudriavzevii) of 0.25 µg/mL (≈ 0.574 µM) and an MIC (Candida albicans [17]) of 0.06 µg/mL (≈ 0.138 µM). For the same compound, the MFC (Candida albicans [18]) was 1 µg/mL (≈ 2.3 µM), the remaining [19] was 88.5% and the MIC50 (Candida albicans [20]) was 0.25 µg/mL (≈ 0.574 µM). For the same compound, the MIC50 (Candida albicans [21]) was 4 µg/mL (≈ 9.18 µM), the MIC (Candida albicans [22]) was 2 µg/mL (≈ 4.59 µM) and the MIC (Candida tropicalis) was 0.015 µg/mL (≈ 0.0344 µM). For the same compound, the IC50 at 96 h [23] was 22.6 µM, the MIC (Candida albicans [24]) was 4 µg/mL (≈ 9.18 µM) and the IC50 (MCF7) was over 50 µM. The remaining at 120 h [25] was 90.1%.
